Data as given in publication PMC9090415, “Discovery of small molecule inhibitors of Plasmodium falciparum apicoplast DNA polymerase” (Journal of Enzyme Inhibition and Medicinal Chemistry, 2022).

Target: P. falciparum apicoplast DNA polymerase (Pf-apPOL) (Plasmodium falciparum, UniProt Q8ILY1)
Experiment: Fluorescence-based high-throughput DNA polymerase assay (molecular beacon), primary screen and dose-response
Assay type: biochemical
Description: The HT assay employs a molecular beacon, a stem-loop DNA template with a Cy3 dye and the Black Hole Quencher on the 3′ and 5′ ends of the DNA, respectively. Pf-apPOL concentration is based on a calculated absorptivity of ε280 = 56750 M^−1 cm^−1. Reactions were carried out at 25 °C, using Corning 3575 […] (well-volume, 20 µL). Assays testing for compound inhibition composed of reaction buffer (pH 7.9 in 50 mM potassium acetate, 20 mM Tris-acetate and 10 mM magnesium acetate), Pf-apPOL (20 nM), DNA substrate (20 nM), dNTPs (6 µM), and compound (10 µM in DMSO). The DNA and nucleotide substrates (dNTPs) were at concentrations of 20 nM and 6 µM, respectively, in the assay. Pf-apPOL was incubated in the reaction buffer with dNTPs and the compound of interest (10 µM, in the assay) at 25 °C for 10 min. The DNA substrate was then added and the reaction was allowed to proceed for 90 min at 25 °C.
Each assay plate contained 16 negative controls (no Pf-apPOL, DMSO present) and 16 positive controls (Pf-apPOL present, no DMSO). The fluorescence of each well was determined using a BioTek Synergy Neo fluorescence plate reader using excitation and emission wavelengths of 555 and 570 nm, respectively.
In the above, Min is the average of fluorescence emission of the negative controls (substrate only), Max the average fluorescence emission from the positive controls (enzyme + substrate), and Test the emission from the assays in the presence of compounds (enzyme + compound + substrates). […] […] The IC50 of each compound was determined using Equation (2): (2) IC50= Vmax/(1+ (I/IC50)^n)
In the above, n measures cooperativity, with n > 1 indicating synergistic binding of more than a single molecule of the compound.
To identify apPOL inhibitors we utilised our previously developed high-throughput DNA polymerase assay. The HT assay is based on a molecular beacon DNA template that forms a stem-loop with a Cy3 dye and the Black Hole Quencher on the 3′ and 5′ ends of the DNA, respectively. DNA polymerase activity extends an annealed primer through the stem region, displacing the fluorophore from the quencher, thereby increasing its fluorescence (Figure 1(A)). The assay accurately recapitulates the kinetic behaviour of apPOL, as measured through more conventional low-throughput gel-based assays. The Z′ factor for the assay described here was 0.9 across all plates (data not shown).
Figure 1. High-throughput screening. (A) The fluorescent-based DNA polymerase assay used to screen the compound libraries. The DNA template strand is a hairpin loop with a primer annealed to the loop. The 3’ end of the primer is 11 bases away from the 6 bp duplex. Strand displacement activity of the DNA polymerase separates the Cy3 dye from the Black hole quencher leading to an increase in fluorescent signal. (B) The high-throughput assay workflow. The DNA polymerase is incubated with […] compound for 10 min prior to addition of the hairpin substrate. The reaction is quenched at 3 different time points and the fluorescent signal is measured and % inhibition is determined using the provided equation.

[1] = supplemental file 2, sheet IC50 nontoxic compounds; Pf-apPOL

Sequence of P. falciparum apicoplast DNA polymerase (Pf-apPOL) (Q8ILY1 entry or part of it): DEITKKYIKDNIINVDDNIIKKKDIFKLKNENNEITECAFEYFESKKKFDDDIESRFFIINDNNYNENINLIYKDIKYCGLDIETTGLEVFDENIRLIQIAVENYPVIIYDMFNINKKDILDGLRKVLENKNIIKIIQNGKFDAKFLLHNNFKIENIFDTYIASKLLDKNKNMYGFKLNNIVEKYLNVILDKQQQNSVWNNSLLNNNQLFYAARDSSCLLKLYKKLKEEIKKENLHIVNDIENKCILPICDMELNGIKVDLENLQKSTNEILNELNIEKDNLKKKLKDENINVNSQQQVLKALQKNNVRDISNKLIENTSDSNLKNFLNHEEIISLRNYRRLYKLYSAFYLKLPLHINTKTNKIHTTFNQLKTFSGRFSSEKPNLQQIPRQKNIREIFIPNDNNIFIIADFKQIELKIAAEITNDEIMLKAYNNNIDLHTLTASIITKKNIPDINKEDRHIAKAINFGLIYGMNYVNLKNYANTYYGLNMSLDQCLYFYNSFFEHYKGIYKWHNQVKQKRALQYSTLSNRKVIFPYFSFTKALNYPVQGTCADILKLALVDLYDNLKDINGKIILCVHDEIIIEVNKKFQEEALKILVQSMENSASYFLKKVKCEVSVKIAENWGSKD

## C=CCOc1c(Br)cc(Br)cc1/C=C1\SC(=N)NC1=O [KU0051640]
'DNA Pol' of the 186 hits list (screen value); 90 min, 10 µM
  DNA Pol: 26
DRC-1; 10'; conc 2.5
  % inhibition Apo pol 10': 4.163%
DRC-1; 10'; conc 5
  % inhibition Apo pol 10': -1.099%
DRC-1; 10'; conc 10
  % inhibition Apo pol 10': 11.4088%
DRC-1; 10'; conc 20
  % inhibition Apo pol 10': 46.0852%
DRC-1; 10'; conc 40
  % inhibition Apo pol 10': 88.1194%
DRC-1; 10'; conc 80
  % inhibition Apo pol 10': 94.2659%
DRC-1; 90'; conc 2.5
  % inhibition Apol 90': 2.139%
DRC-1; 90'; conc 5
  % inhibition Apol 90': -4.076%
DRC-1; 90'; conc 10
  % inhibition Apol 90': 7.3276%
DRC-1; 90'; conc 20
  % inhibition Apol 90': 38.2187%
DRC-1; 90'; conc 40
  % inhibition Apol 90': 86.7215%
DRC-1; 90'; conc 80
  % inhibition Apol 90': 95.0722%
DRC-1; 180'; conc 2.5
  % inhibition apPOL 180': -0.2194%
DRC-1; 180'; conc 5
  % inhibition apPOL 180': -7.333%
DRC-1; 180'; conc 10
  % inhibition apPOL 180': 0.9345%
DRC-1; 180'; conc 20
  % inhibition apPOL 180': 26.8822%
DRC-1; 180'; conc 40
  % inhibition apPOL 180': 86.6627%
DRC-1; 180'; conc 80
  % inhibition apPOL 180': 95.6515%
DRC-2; 5'; conc 2.5
  % inhibition Apo pol 5': 11%
DRC-2; 5'; conc 5
  % inhibition Apo pol 5': 7%
DRC-2; 5'; conc 10
  % inhibition Apo pol 5': 20%
DRC-2; 5'; conc 20
  % inhibition Apo pol 5': 43%
DRC-2; 5'; conc 40
  % inhibition Apo pol 5': 54%
DRC-2; 5'; conc 80
  % inhibition Apo pol 5': 54%
DRC-2; 5'; concentration 5
  % inhibition Apo pol 5': 7%
DRC-2; 5'; concentration 40
  % inhibition Apo pol 5': 54%
DRC-2; 5'; concentration 80
  % inhibition Apo pol 5': 54%
DRC-2; 40'; conc 2.5
  % inhibition Apol 40': 12%
DRC-2; 40'; conc 5
  % inhibition Apol 40': 7%
DRC-2; 40'; conc 10
  % inhibition Apol 40': 24%
DRC-2; 40'; conc 20
  % inhibition Apol 40': 54%
DRC-2; 40'; conc 40
  % inhibition Apol 40': 72%
DRC-2; 40'; conc 80
  % inhibition Apol 40': 75%
DRC-2; 40'; concentration 2.5
  % inhibition Apol 40': 12%
DRC-2; 40'; concentration 5
  % inhibition Apol 40': 7%
DRC-2; 40'; concentration 20
  % inhibition Apol 40': 54%
DRC-2; 90'; conc 2.5
  % inhibition ApPOL 90': 12%
DRC-2; 90'; conc 5
  % inhibition ApPOL 90': 6.55%
DRC-2; 90'; conc 10
  % inhibition ApPOL 90': 23%
DRC-2; 90'; conc 20
  % inhibition ApPOL 90': 56%
DRC-2; 90'; conc 40
  % inhibition ApPOL 90': 76%
DRC-2; 90'; conc 80
  % inhibition ApPOL 90': 79%
DRC-2; 90'; concentration 2.5
  % inhibition ApPOL 90': 12%
DRC-2; 90'; concentration 40
  % inhibition ApPOL 90': 76%
DRC-2; 180'; conc 2.5
  % inhibition apPOL 180': 9%
DRC-2; 180'; conc 5
  % inhibition apPOL 180': 4%
DRC-2; 180'; conc 10
  % inhibition apPOL 180': 17%
DRC-2; 180'; conc 20
  % inhibition apPOL 180': 49%
DRC-2; 180'; conc 40
  % inhibition apPOL 180': 76%
DRC-2; 180'; conc 80
  % inhibition apPOL 180': 81%
DRC-2; 180'; concentration 40
  % inhibition apPOL 180': 76%
Primary screen value, "DNA Pol"; 90 min, 10 µM
  DNA Pol: 26

## O=c1cc(-c2ccccc2)oc2c(O)c(O)ccc12 [Molecule 84]
[1]
  IC50: 32.2 µM

## CCOc1ccccc1-c1nc(-c2ccc(=O)[nH]c2)no1 [Molecule 76]
[1]
  IC50: 38.7 µM

## O=C(Nc1c2c(nn1-c1ccccc1)CSC2)c1ccco1 [KU0055213]
DRC-1; concentration 2.5; 10'
  % inhibition Apo pol 10': 28.0848%
DRC-1; concentration 2.5; 90'
  % inhibition Apol 90': 10.2281%
DRC-1; concentration 2.5; 180'
  % inhibition apPOL 180': -1.233%
DRC-1; concentration 5; 10'
  % inhibition Apo pol 10': 39.8975%
DRC-1; concentration 5; 90'
  % inhibition Apol 90': 17.5159%
DRC-1; concentration 5; 180'
  % inhibition apPOL 180': 1.991%
DRC-1; concentration 10; 10'
  % inhibition Apo pol 10': 66.5971%
DRC-1; concentration 10; 90'
  % inhibition Apol 90': 43.2893%
DRC-1; concentration 10; 180'
  % inhibition apPOL 180': 23.4061%
DRC-1; concentration 20; 10'
  % inhibition Apo pol 10': 82.6519%
DRC-1; concentration 20; 90'
  % inhibition Apol 90': 64.6698%
DRC-1; concentration 20; 180'
  % inhibition apPOL 180': 46.0885%
DRC-1; concentration 40; 10'
  % inhibition Apo pol 10': 90.9141%
DRC-1; concentration 40; 90'
  % inhibition Apol 90': 82.7699%
DRC-1; concentration 40; 180'
  % inhibition apPOL 180': 72.6518%
DRC-1; concentration 80 (unit not given); 10'
  % inhibition Apo pol 10': 92.3383%
DRC-1; concentration 80; 90'
  % inhibition Apol 90': 91.2919%
DRC-1; concentration 80; 180'
  % inhibition apPOL 180': 88.3514%
DRC-2; 5'; concentration 2.5
  % inhibition Apo pol 5': 24%
DRC-2; 5'; concentration 5
  % inhibition Apo pol 5': 37%
DRC-2; 5'; concentration 40
  % inhibition Apo pol 5': 59%
DRC-2; 5'; concentration 80
  % inhibition Apo pol 5': 59%
DRC-2; 40'; concentration 20
  % inhibition Apol 40': 59%
DRC-2; 40'; concentration 40
  % inhibition Apol 40': 70%
DRC-2; 90'; concentration 10
  % inhibition ApPOL 90': 37%
DRC-2; 90'; concentration 40
  % inhibition ApPOL 90': 70%
DRC-2; 180'; concentration 10
  % inhibition apPOL 180': 24%
DRC-2; concentration 2.5; 5'
  % inhibition Apo pol 5': 24%
DRC-2; concentration 2.5; 40'
  % inhibition Apol 40': 21%
DRC-2; concentration 2.5; 90'
  % inhibition ApPOL 90': 17%
DRC-2; concentration 2.5; 180'
  % inhibition apPOL 180': 9%
DRC-2; concentration 5; 5'
  % inhibition Apo pol 5': 37%
DRC-2; concentration 5; 40'
  % inhibition Apol 40': 36%
DRC-2; concentration 5; 90'
  % inhibition ApPOL 90': 32%
DRC-2; concentration 5; 180'
  % inhibition apPOL 180': 20%
DRC-2; concentration 10; 5'
  % inhibition Apo pol 5': 44%
DRC-2; concentration 10; 40'
  % inhibition Apol 40': 42%
DRC-2; concentration 10; 90'
  % inhibition ApPOL 90': 37%
DRC-2; concentration 10; 180'
  % inhibition apPOL 180': 24%
DRC-2; concentration 20; 5'
  % inhibition Apo pol 5': 52%
DRC-2; concentration 20; 40'
  % inhibition Apol 40': 59%
DRC-2; concentration 20; 90'
  % inhibition ApPOL 90': 57%
DRC-2; concentration 20; 180'
  % inhibition apPOL 180': 49%
DRC-2; concentration 40; 5'
  % inhibition Apo pol 5': 59%
DRC-2; concentration 40; 40'
  % inhibition Apol 40': 70%
DRC-2; concentration 40; 90'
  % inhibition ApPOL 90': 70%
DRC-2; concentration 40; 180'
  % inhibition apPOL 180': 65%
DRC-2; concentration 80; 5'
  % inhibition Apo pol 5': 59%
DRC-2; concentration 80; 40'
  % inhibition Apol 40': 75%
DRC-2; concentration 80; 90'
  % inhibition ApPOL 90': 77%
DRC-2; concentration 80; 180'
  % inhibition apPOL 180': 78%
Primary screen value of the 186 hits; unit not given; 90 min, 10 µM
  DNA Pol: 50
Primary screen value; head prints only 'DNA Pol'; 90 min, 10 µM
  DNA Pol: 50
